One data set concerns African trypanosomes. In words: In vitro activity against African trypanosomes (summary). The data set is classed as cell-based. The note with it: Trypanosoma brucei, laboratory strains and recent clinical isolates. As for the experimental part: Parasites were cultured with or without the test article at a concentration of 3×10^4/mL in Minimal Essential Medium, according to Baltz et al., with the following modifications: 0.2 mM 2-mercaptoethanol, 1 mM Na-pyruvate, 0.5 mM hypoxanthine and 15% heat inactivated horse serum at 37°C in 5% CO2 in 96-well microtitre plates for 72 h. 10 µL of Alamar Blue was added for the final 3 h to determine viability. The assay was assessed by reading the fluorescence in each well at an excitation wavelength of 536 nm and at an emission wavelength of 588 nm. The IC50 values were calculated from the sigmoidal inhibition curves. For cytotoxicity, 4×10^4/mL L-6 rat skeletal myoblast cells were used, and incubations and assessments carried out as above.

The next data set deals with T. b. gambiense 130R. In words: Acute infection mouse model. It counts as in vivo. The conditions noted are these: 100 mg/kg×4 days po. As for the experimental part:
(§1) Female NMRI mice were infected via intraperitoneal injection with bloodstream forms of T. b. rhodesiense STIB900 or T. b. gambiense 130R and treated with test drugs daily for 4 consecutive days, starting on day 3 or 7 after infection, respectively, or with bloodstream forms of T. b brucei GVR35 and treated daily from day 21 after infection for 5 days. Parasitemia was evaluated by tail blood examination and surviving, aparasitaemic mice at 60, 90, or 180 days, respectively, were considered cured.

Data set [1] relates to T. b. rhodesiense STIB900. The data set can be described thus: Acute infection mouse model. It counts as in vivo. As for the experimental part:
as §1

The test system of another data set is T. b. brucei GVR35. In words: Chronic (stage 2) infection mouse model. The data set is classed as in vivo. As for the experimental part:
as §1

Data set [2] is described as follows: Hepatocyte intrinsic clearance and metabolite profile. The conditions noted are these: male, Sprague Dawley, rat, cryopreserved hepatocytes, 1 µM. The data set is classed as in vitro ADME, rat. As for the experimental part:
Fexinidazole was incubated with cryopreserved hepatocytes from male CD-1 mice, male Sprague Dawley rats, male beagle dogs, male cynomolgus monkeys, and from pooled white or African-American human donor samples (purchased commercially), at concentrations of 1 µM and 10 µM. […] The incubated samples were analyzed by LC-MS after extraction into acetonitrile.
A quality control analysis of fexinidazole was performed via 1H-NMR in DMSO and LC- […]
provided by the Swiss Tropical Institute (Basel, Switzerland).
Reagents and solvents were of analytical grade and obtained from Sigma-Aldrich (St. Louis, […]
Cryopreserved hepatocytes from the male CD1 mouse, lot CSI; male Sprague Dawley rat, lot LPL; male beagle dog, lot BWX; male cynomolgus monkey, lot EHH; and pooled human samples, lot MJI, were purchased from In Vitro Technologies Inc (Baltimore, Maryland, […]
5.4. In vitro Incubations
On the day of the experiment a 10 mM stock solution of fexinidazole in DMSO was prepared and, within 3 hours, aliquots of this freshly prepared solution, after suitable dilution, were added to the incubation matrix, to reach fexinidazole final concentrations of 1 and 10 µM. The final percentage of DMSO was 0.01% in the incubation samples for the […]
On the day of experiment, the cryopreserved hepatocytes were thawed following the detailed instructions provided by the supplier.
The number of viable cells was determined using a Trypan Blue exclusion method.
5.4.1. Intrinsic Clearance Study […]
µM with mouse, rat, dog, monkey and human hepatocytes (300000 cells/mL for the mouse and 1 million cells/mL for the other species) in a final incubation volume of 0.75 mL […]
Incubations were performed in duplicate in a 48-well plate under shaking. Sampling was performed using an automatic liquid handling system (Multiprobe II EX, Packard). At 0, 1, 5, 10, 15, 20, 30, 60 and 120 minutes, 50 µL aliquots of the incubates were taken, then 80 µL of ice-cold acetonitrile and 20 µL of 1 µM warfarin in acetonitrile (internal standard) were added, and samples centrifuged at 2000 rpm for 20 min. The supernatant was analyzed by LC-MS/MS. […]
the medium alone at t = 0 and 120 minutes.
For the determination of phase I and phase II activity of hepatocytes, 7-ethoxycoumarin (7-EC) 1 µM, and 7-hydroxycoumarin (7-HC) 30 µM were used as positive controls and incubated under the same conditions as fexinidazole. Aliquots of incubates were taken at 0, 10, 20, 30, 60 and 120 minutes and processed as fexinidazole samples.
5.4.2. Metabolite Profile Study
For metabolite profiling, fexinidazole was incubated at a concentration of 10 µM with mouse, rat, dog, monkey and human hepatocytes (300000 cells/mL for the mouse and 1 million cells/mL for the other species) in a final incubation volume of 2 mL Leibovitz L-15 […]
Aliquots of the incubation samples were taken at t = 0, 30 and 120 minutes; the metabolism was stopped by the addition of an equal volume of cold acetonitrile and the samples centrifuged at 1500 rpm for 20 min. The supernatant was stored at -20°C until analysis. Control incubations were performed with the compound in the medium alone […]
5.5. Analysis of Samples for Intrinsic Clearance Determination
The analysis of the samples for intrinsic clearance determination was performed by an LC-MS/MS method, using the following conditions:
HPLC Equipment and Conditions
HPLC system Agilent 1100 binary pump (Agilent, Palo Alto, USA)
Autosampler CTC Pal (Alfatech, San Jose, USA)
Analytical column Guard Column SB-C8 4.6 x 12.5 mm, 5 µm (Zorbax)
Column temperature ambient
Mobile phase A 10 mM ammonium formate pH 4.0: acetonitrile (95:5, v:v)
Mobile phase B 10 mM ammonium formate pH 4.0: acetonitrile (5:95, v:v) […]
Gradient conditions Step Total time (min) flow (µL/min) %A % B […]
MS Equipment and Conditions
Mass spectrometer API 4000 Triple Quadrupole (MDS-Sciex, Toronto, […]
Source Turbo Ion Spray (TIS)
Ion mode Positive for fexinidazole and 7-EC.
Negative for 7-HC, 7-HC sulphate and 7-HC glucuronide.

Another data set has as its target CYP2C8 (Homo sapiens, UniProt P10632). The data set can be described thus: In vitro CYP-450 metabolism. It counts as in vitro ADME. The conditions noted are these: 1.0 µM, up to 60 min. As for the experimental part:
(§2) Duplicate samples of human recombinant CYP enzyme isotypes CYP1A2, CYP2B6, CYP2C8, CYP2C9, CYP2C19, CYP2D6, CYP3A4, CYP3A5 (10–30 pmol/mL) with NADPH as cofactor were incubated with fexinidazole, fexinidazole sulfoxide, or fexinidazole sulfone at a concentration of 1.0 µM for up to 60 min (pH 7.4, 37°C). Detection of the compounds was via HPLC-MS.

Another data set addresses CYP2C9 (Homo sapiens, UniProt P11712). In words: In vitro CYP-450 metabolism. It counts as in vitro ADME. The note with it: 1.0 µM, up to 60 min. As for the experimental part: as §2
Data set [3] in a line: Respiratory safety (plethysmography). The note with it: single oral dose.
Description: Respiratory parameters were assessed in the rat [42]. Groups of eight male rats (Crl:CD(SD)BR), aged about 8 weeks on the day of dosing, were administered doses of 100, 300, or 1000 mg/kg of fexinidazole by oral gavage. A predetermined standard set of respiratory parameters was acquired continuously from individual animals housed in plethysmographic chambers. […] After treatment, values were extracted every 30 min up to 4 h. Body weights were recorded on the day of treatment for calculation of dose volumes and for calculation of tidal and minute volumes per kg of body weight.
On the day of dosing, animals were placed in individual plethysmographic chambers. After
an acclimation period of at least 1 hour, and once respiratory parameters had stabilized,
recording of respiratory signals was started and basal data were recorded for at least 30
minutes. Animals were taken from the chambers, orally dosed and placed again in the
chambers for at least 4 hours. […]
the time point was not extracted. Basal values were calculated as the mean of values […]
were extracted every 30 minutes up to 4 hours. The following parameters were calculated […]
− Minute volume (MV, mL/kg/min calculated as TV*f)
− Enhanced Pause (Penh, calculated as ((ET/RT)-1)*(PEF/PIF))
Body weight (grams) was recorded on the day of treatment for calculation of dose volumes […]

Molecules are shown by their SMILES. Converted amounts (≈) assume the structure as drawn.

The source of these data is article PMC3006138, “Fexinidazole – A New Oral Nitroimidazole Drug Candidate Entering Clinical Development for the Treatment of Sleeping Sickness” (PLoS Neglected Tropical Diseases, 2010).

CYP2C8, sequence (P10632 whole entry): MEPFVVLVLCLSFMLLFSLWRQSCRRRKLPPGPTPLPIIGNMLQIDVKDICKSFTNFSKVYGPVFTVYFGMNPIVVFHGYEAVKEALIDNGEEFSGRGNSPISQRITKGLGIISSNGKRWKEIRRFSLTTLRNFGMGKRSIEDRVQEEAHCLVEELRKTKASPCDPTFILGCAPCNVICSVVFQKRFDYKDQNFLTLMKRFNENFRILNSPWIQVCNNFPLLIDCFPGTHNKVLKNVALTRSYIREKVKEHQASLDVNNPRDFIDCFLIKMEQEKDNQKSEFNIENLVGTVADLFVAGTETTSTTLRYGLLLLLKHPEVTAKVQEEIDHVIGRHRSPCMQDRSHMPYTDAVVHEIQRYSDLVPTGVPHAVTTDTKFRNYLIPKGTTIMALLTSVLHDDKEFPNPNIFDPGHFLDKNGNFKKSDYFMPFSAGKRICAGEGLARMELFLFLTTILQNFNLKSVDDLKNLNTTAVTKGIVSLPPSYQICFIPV
CYP2C9, sequence (P11712 whole entry): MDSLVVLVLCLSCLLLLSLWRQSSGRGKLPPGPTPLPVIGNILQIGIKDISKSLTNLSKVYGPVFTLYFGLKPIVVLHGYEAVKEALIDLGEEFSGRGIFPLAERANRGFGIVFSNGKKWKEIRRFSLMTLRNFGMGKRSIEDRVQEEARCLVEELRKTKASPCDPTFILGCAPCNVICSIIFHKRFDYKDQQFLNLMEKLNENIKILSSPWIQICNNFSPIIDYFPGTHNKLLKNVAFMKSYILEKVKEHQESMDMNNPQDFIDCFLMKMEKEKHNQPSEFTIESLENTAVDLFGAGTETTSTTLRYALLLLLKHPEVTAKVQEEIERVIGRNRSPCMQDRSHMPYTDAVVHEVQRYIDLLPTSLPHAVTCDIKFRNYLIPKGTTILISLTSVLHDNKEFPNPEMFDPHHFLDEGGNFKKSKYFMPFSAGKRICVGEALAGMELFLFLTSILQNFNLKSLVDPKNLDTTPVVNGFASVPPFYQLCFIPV

What is called IC50 is the concentration that inhibits the measured activity by half. Read a low IC50 as greater potency. What is called half-life is the time needed for the level to fall by half in the phase considered. `CSc1ccc(OCc2ncc([N+](=O)[O-])n2C)cc1` [Fexinidazole, 1-methyl-2-((p-(methylthio)phenoxy)methyl)-5-nitroimidazole]: the IC50 in the data set with African trypanosomes fell in the range of 0.1 to 0.8 µg/mL (≈ 0.358 to 2.86 µM). The Cured/infected with T. b. gambiense 130R is recorded as 3/3; in data set [1] (25 mg/kg×4 days po) it was 0/4; in data set [1] (50 mg/kg×4 days po) it was 1/4; in data set [1] (100 mg/kg×4 days po), 4/4; in the data set on T. b. brucei GVR35 (50 mg/kg×5 days po), 0/8; with T. b. brucei GVR35 (100 mg/kg×5 days po), 2/8. Further, the Cured/infected in the data set on T. b. brucei GVR35 (200 mg/kg×5 days po) is 7/8. The Mean relapse time in the data set with T. b. gambiense 130R is reported as over 90 days; in data set [1] (25 mg/kg×4 days po), 12 days; in data set [1] (50 mg/kg×4 days po), over 27 days; in data set [1] (100 mg/kg×4 days po) it was over 60 days; with T. b. brucei GVR35 (50 mg/kg×5 days po) it was 41.3 days; in the data set with T. b. brucei GVR35 (100 mg/kg×5 days po), over 82.1 days. The same molecule came in with a Mean relapse time in the data set on T. b. brucei GVR35 (200 mg/kg×5 days po) of over 163.8 days. Besides, the efficacy result in data set [1] (50 mg/kg twice a day for 4 days po, T. b. rhodesiense and T. b. gambiense acute models) was “effective in curing”; in data set [1] (single high dose, acute model, data not shown), “partially curative”. The cure in the data set on T. b. brucei GVR35 (100 mg/kg twice per day for 5 days po, groups of 5 mice, two independent experiments) was 100%. Moreover, the half-life at 1 µM in data set [2] worked out at 1.2 min. Besides, in data set [2] (read-out: CLint in vitro), the CLint scaled at 1 µM was over 3000 mL/min/kg. Also, the hepatocyte CLint at 1 µM in data set [2] (read-out: CLint in vitro) was 602 µL/min/1e6 cells. Besides, the “metabolism by the enzyme” value on CYP2C8 and at CYP2C9 was “inactive” throughout. Also, the “NOEL on respiratory parameters” value in data set [3] is 1000 mg/kg.
